In PubChem BioAssay AID977614 (Broad Institute, 2014):
Active and inactive are the calls of the source.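 How the source made its calls: active means parasite count per well reduced by over 3 SD from the mean, with host cell number above 80% of untreated; inactive means the rest.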

Test system: L. donovani amastigotes in THP-1 macrophages, DAPI imaging, 72 h
Assay: L. donovani intracellular amastigote growth inhibitors, imaging, THP-1 host macrophages, single concentration (AID 977614);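 further: signal is the parasite per host cell ratio from DAPI stained kinetoplasts and nuclei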

| SMILES | AC50 |
| --- | --- |
| C[C@@H]1CN([C@@H](C)CO)C(=O)CCCn2nncc2CO[C@@H]1CN(C)C(=O)c1cc(-c2ccccc2)on1 | > 10 µM (inactive) |
| C[C@@H]1CN([C@@H](C)CO)C(=O)CCCn2cc(nn2)CO[C@@H]1CN(C)C(=O)CCC(F)(F)F | > 10 µM (inactive) |
| C[C@H](CO)N1C[C@H](C)[C@H](CN(C)S(=O)(=O)c2ccc(-n3cccn3)cc2)OCc2cn(nn2)CCCC1=O | > 10 µM (inactive) |
| CCN(C[C@@H]1[C@H](c2ccccc2)[C@H](CO)N1C(=O)COC)S(C)(=O)=O | > 10 µM (inactive) |
| CN(C[C@@H]1[C@@H](c2ccccc2)[C@H](CO)N1Cc1ccccn1)S(C)(=O)=O | > 10 µM (inactive) |
| CCN(C[C@@H]1[C@@H](c2ccc(C3=CCCCC3)cc2)[C@@H](CO)N1CC1CC1)C(C)=O | > 10 µM (inactive) |
| CCCN(C[C@H]1N[C@H](CO)[C@@H]1c1ccccc1)C(=O)COC | > 10 µM (inactive) |
| C/C=C/c1ccc([C@@H]2[C@H](CO)N[C@H]2CN(C(=O)c2ccccc2F)C(C)C)cc1 | > 10 µM (inactive) |
| COCC(=O)N(C)C[C@H]1[C@H](c2ccccc2)[C@@H](CO)N1C(=O)Cc1ccncc1 | > 10 µM (inactive) |
| C[C@@H]1CN([C@@H](C)CO)C(=O)CCCn2nncc2CO[C@@H]1CN(C)C(=O)c1ccc(N2CCN(C)CC2)cc1 | > 10 µM (inactive) |
| C[C@@H]1CN([C@@H](C)CO)C(=O)CCCn2nncc2CO[C@H]1CN(C)S(=O)(=O)c1ccc(Oc2ccccc2)nc1 | > 10 µM (inactive) |
| O=S(=O)(c1ccc(F)cc1)N1C[C@@H]2[C@H](c3ccccc31)[C@H](CO)N2Cc1ccccc1Cl | > 10 µM (inactive) |
| CCC(=O)N(C)C[C@@H]1[C@@H](c2ccccc2)[C@H](CO)N1Cc1cccnc1 | > 10 µM (inactive) |
| C[C@H]1CN([C@@H](C)CO)C(=O)CCCn2cc(nn2)CO[C@@H]1CN(C)Cc1ccccc1 | > 10 µM (inactive) |
| O=C(NC[C@H]1[C@H](c2ccccc2)[C@@H](CO)N1C(=O)C1CCC1)NC1CCCC1 | > 10 µM (inactive) |
| COc1ccc(C(=O)N2C[C@H]3[C@@H](c4ccccc42)[C@H](CO)N3C(=O)Cc2ccccn2)cc1 | > 10 µM (inactive) |
| COCC(=O)N1[C@H](CO)[C@H]2c3ccccc3NC[C@H]21 | > 10 µM (inactive) |
| CN(C[C@H]1[C@@H](c2ccccc2)[C@@H](CO)N1Cc1ccccn1)S(C)(=O)=O | > 10 µM (inactive) |
| COCC(=O)N1C[C@H]2[C@@H](c3ccccc31)[C@@H](CO)N2C(=O)c1ccccc1F | > 10 µM (inactive) |
| CN(C[C@@H]1N[C@H](CO)[C@@H]1c1ccc(C#CCC2CCCC2)cc1)S(C)(=O)=O | > 10 µM (inactive) |
| C[C@@H]1CN([C@H](C)CO)C(=O)CCCn2cc(nn2)CO[C@H]1CN(C)S(=O)(=O)c1cccc(C#N)c1 | > 10 µM (inactive) |
| C[C@H]1CN([C@@H](C)CO)C(=O)CCCn2nncc2CO[C@@H]1CN(C)S(=O)(=O)c1ccccc1C#N | > 10 µM (inactive) |
| C[C@@H]1CN([C@@H](C)CO)C(=O)CCCn2nncc2CO[C@H]1CN(C)Cc1cccc(C(F)(F)F)c1 | > 10 µM (inactive) |
| O=C(Nc1ccc(Cl)cc1)N1C[C@H]2[C@@H](c3ccccc31)[C@@H](CO)N2CC1CCCCC1 | > 10 µM (inactive) |
| CCCNC(=O)N1[C@H](CO)[C@@H]2c3ccccc3N(C(=O)Nc3cccc(Cl)c3)C[C@@H]21 | > 10 µM (inactive) |
| Cc1noc(C)c1S(=O)(=O)N(C)C[C@H]1OCc2cnnn2CCCC(=O)N([C@@H](C)CO)C[C@H]1C | > 10 µM (inactive) |
| CCCNC(=O)N1[C@H](CO)[C@@H]2c3ccccc3N(C(=O)c3ccncc3)C[C@@H]21 | > 10 µM (inactive) |
| OC[C@H]1[C@H]2c3ccccc3NC[C@H]2N1Cc1ccccc1Cl | > 10 µM (inactive) |

| SMILES | AC50 |
| --- | --- |
| C[C@@H]1CN([C@@H](C)CO)C(=O)CCCn2cc(nn2)CO[C@H]1CN(C)C(=O)NC1CCCCC1 | > 10 µM (inactive) |
| CCCC#Cc1ccc([C@H]2[C@@H](CO)N(C(=O)NC(C)C)[C@H]2CNC(C)=O)cc1 | > 10 µM (inactive) |
| CC(C)N(C[C@@H]1N[C@@H](CO)[C@@H]1c1ccccc1)S(=O)(=O)c1ccccc1 | > 10 µM (inactive) |
| COc1ccccc1CN1[C@@H](CO)[C@@H]2c3ccccc3N(C(=O)c3cccnc3)C[C@@H]21 | > 10 µM (inactive) |
| CCC(=O)N1[C@@H]2CN(S(=O)(=O)c3ccc(F)cc3)c3ccccc3[C@@H]2[C@@H]1CO | > 10 µM (inactive) |
| CCC(=O)N1[C@H](CO)[C@H](c2ccccc2)[C@H]1CN(CC1CCC1)S(C)(=O)=O | > 10 µM (inactive) |
| COCCNC[C@@H]1[C@@H](c2ccccc2)[C@@H](CO)N1c1nc(C)c(C)s1 | > 10 µM (inactive) |
| O=C(Nc1ccc(Cl)cc1)N1C[C@@H]2[C@H](c3ccccc31)[C@H](CO)N2CC1CCCCC1 | > 10 µM (inactive) |
| CCN(C[C@H]1[C@H](c2ccccc2)[C@@H](CO)N1C(=O)COC)S(C)(=O)=O | > 10 µM (inactive) |
| COc1cccc(C(=O)N2C[C@H]3[C@@H](c4ccccc42)[C@@H](CO)N3C(=O)c2cccc(F)c2)c1 | > 10 µM (inactive) |
| CNC[C@H]1OCc2cn(nn2)CCCC(=O)N([C@H](C)CO)C[C@@H]1C | > 10 µM (inactive) |
| CNC[C@@H]1OCc2cnnn2CCCC(=O)N([C@H](C)CO)C[C@H]1C | > 10 µM (inactive) |
| C/C=C/c1ccc([C@H]2[C@@H](CN(C)C(C)=O)N(C(=O)NC(C)C)[C@H]2CO)cc1 | > 10 µM (inactive) |
| CCc1csc(N2[C@H](CO)[C@H](c3ccccc3)[C@@H]2CN(C)C(=O)C2CCC2)n1 | > 10 µM (inactive) |
| COc1ccc(CN(C)C[C@@H]2OCc3cnnn3CCCC(=O)N([C@@H](C)CO)C[C@@H]2C)cc1 | > 10 µM (inactive) |
| CN1[C@@H](CO)[C@@H]2c3ccccc3N(C(=O)Nc3cc(F)ccc3F)C[C@@H]21 | > 10 µM (inactive) |
| Cc1noc(C)c1S(=O)(=O)N(C)C[C@@H]1OCc2cn(nn2)CCCC(=O)N([C@@H](C)CO)C[C@@H]1C | > 10 µM (inactive) |
| C[C@@H]1CN([C@H](C)CO)C(=O)CCCn2nncc2CO[C@H]1CN(C)Cc1ccc2cccnc2c1 | > 10 µM (inactive) |
| COc1cccc(NC(=O)N2[C@H](CO)[C@H](c3ccccc3)[C@H]2CNCC(C)C)c1 | > 10 µM (inactive) |
| C/C=C/c1ccc([C@H]2[C@H](CO)N(C(C)=O)[C@H]2CN(CC)C(=O)CN(C)C)cc1 | > 10 µM (inactive) |
| CCC(=O)N1[C@@H](CO)[C@@H]2c3ccccc3N(C(=O)Nc3ccc(Cl)cc3)C[C@@H]21 | > 10 µM (inactive) |
| CCCNC[C@H]1[C@@H](c2ccc(C3=CCCCC3)cc2)[C@@H](CO)N1C(=O)C1CCC1 | > 10 µM (inactive) |
| C[C@H]1CN([C@@H](C)CO)C(=O)CCCn2nncc2CO[C@@H]1CN(C)Cc1cccc2c1OCCCO2 | > 10 µM (inactive) |
| C[C@H]1CN([C@@H](C)CO)C(=O)CCCn2nncc2CO[C@@H]1CN(C)C(=O)c1ccc2ccn(C)c2c1 | > 10 µM (inactive) |
| CN(C[C@@H]1N[C@H](CO)[C@H]1c1ccccc1)C(=O)c1ccccn1 | > 10 µM (inactive) |
| C[C@@H]1CN([C@H](C)CO)C(=O)CCCn2nncc2CO[C@@H]1CN(C)S(=O)(=O)c1ccc2c(c1)OCCCO2 | > 10 µM (inactive) |
| CN(C[C@H]1N[C@H](CO)[C@@H]1c1ccc(-c2cccnc2)cc1)C(=O)NC1CCCC1 | > 10 µM (inactive) |
